From PubChem BioAssay (NCI)
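Five compound concentrations were applied to cells in 96-well plates for 48 hours; endpoints were derived by simple linear interpolation of the resulting dose-response curve. GI50 marks 50% less growth. The concentration for full growth arrest is given as TGI.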

Tests used:
Test in all cases: NCI tumour cell line growth inhibition, 48 h
[1] = test system: MDA-N
[2] = test system: NCI-H23 lung
[3] = test system: OVCAR-3 ovarian
[4] = test system: SF-295 CNS
[5] = test system: SK-MEL-28 melanoma
[6] = test system: SR leukemia
[7] = test system: BT-549 breast
[8] = test system: DLD-1 colon
[9] = test system: DMS 273 small cell lung
[10] = test system: KM20L2 colon
[11] = test system: XF 498 CNS
[12] = test system: DMS 114 small cell lung
[13] = test system: HOP-18 NSCLC
[14] = test system: M19-MEL melanoma
[15] = test system: P388 leukemia
[16] = test system: SNB-78 CNS

Compound | TGI [1] [µM] | TGI [2] [µM] | TGI [3] [µM] | TGI [4] [µM] | TGI [5] [µM] | TGI [6] [µM] | TGI [7] [µM] | TGI [8] [µM] | TGI [9] [µM] | TGI [10] [µM] | TGI [11] [µM] | TGI [12] [µM] | GI50 [7] [µM] | TGI [13] [µM] | TGI [14] [µM] | TGI [15] [µM] | TGI [16] [µM] | GI50 [10] [µM] | GI50 [14] [µM] | GI50 [16] [µM]
CC(=O)c1c(-c2ccc(Cl)cc2)c(-c2ccc(Cl)cc2)n[nH]c1=O | > 100 | > 100 | 79.8 | > 100 | > 100 | > 100 | – | – | – | – | – | – | – | – | – | – | – | – | – | –
NC(CSS(=O)(=O)O)=NC1CC2CCC1C2 (centres undefined) | > 100 | > 100 | > 100 | > 100 | > 100 | > 100 | > 100 | – | – | – | – | – | – | – | – | – | – | – | – | –
C=C(C)C1CC=C(C)C(=O)C1 (centres undefined) | > 100 | > 100 | > 100 | > 100 | > 100 | > 100 | – | – | – | – | – | – | – | – | – | – | – | – | – | –
CN1CCCC2C(c3ccccc3)C(C3=NCCCC3)C(c3ccccc3)CC21 (centres undefined) | 41.4 | > 100 | > 100 | > 100 | 36.2 | > 100 | > 100 | – | – | – | – | – | – | – | – | – | – | – | – | –
CCC1CN2CCc3cc(OC)c(OC)cc3C2CC1CC1c2cc(OC)c(OC)cc2CCN1C(=O)C(N)Cc1ccccc1 (centres undefined) | – | 7.64 | 15.4 | 10.3 | 10.3 | 11.4 | – | 14.1 | 5.22 | 3.52 | 10.5 | – | – | – | – | – | – | – | – | –
CCN(CC)C(=O)c1cc(OC(C)C)ccc1-c1c(C)cc(OC(C)C)c(OC)c1OC | – | > 100 | > 100 | – | > 100 | > 100 | – | > 100 | > 100 | > 100 | 73.9 | > 100 | – | – | – | – | – | – | – | –
COc1ccccc1C[C@@H]1OC2(C=CC(=O)CC2SC(=O)c2ccccc2)O[C@H]1Cc1ccccc1OC (some centres undefined) | 6.16 | 5.43 | 4.93 | 4.14 | 3.22 | 2.81 | 2.74 | – | – | – | – | – | – | – | – | – | – | – | – | –
COc1cc2c(cc1C)NC(=O)/C2=C/c1cccnc1 | – | 24.8 | 33.3 | 40.5 | > 100 | – | > 82 | – | – | – | – | – | – | – | – | – | – | – | – | –
O=c1[nH]c2cccc([N+](=O)[O-])c2c(=O)n1-c1ccc(Cl)cc1 | 26.6 | 42.1 | 23.5 | 12.2 | 26.8 | 35.2 | 23.7 | – | – | – | – | – | – | – | – | – | – | – | – | –
CC(=O)NC1C(OCc2ccccc2)OC(CO)C(O)C1OC(C)C(=O)NC(C(=O)NC(CCC(=O)NCCCC(=O)Nc1ccc2c(c1)CN1C(=O)c3ccccc3C1=N2)C(N)=O)C(C)C (centres undefined) | > 100 | > 100 | > 100 | > 100 | > 100 | > 100 | > 100 | – | – | – | – | – | – | – | – | – | – | – | – | –
[O-][n+]1nc(N2CCOCC2)nc2ccccc21 | > 100 | > 100 | – | > 100 | > 100 | – | > 100 | – | – | – | – | – | – | – | – | – | – | – | – | –
NC(=O)NC1NC(=O)NC1=O (centres undefined) | > 100 | > 100 | > 100 | > 100 | > 100 | > 100 | > 100 | – | – | – | – | – | – | – | – | – | – | – | – | –
COc1cc2c(/C=C3/C(=O)Nc4ccc(O)cc43)c(Cl)n(Cc3ccccc3)c2cc1C | – | 3.89 | 0.704 | 3.91 | 44.1 | 3.35 | 24.6 | – | – | – | – | – | 4.67 | – | – | – | – | – | – | –
CCC(C)C(=O)OC1C(=O)OC2CC3C(C)=CC(=O)C(O)C3(C)C3C4(O)OCC23C1C(C)C4O (centres undefined) | 0.232 | 0.0431 | 0.124 | 0.126 | 0.106 | – | 0.094 | – | – | – | – | – | – | – | – | – | – | – | – | –
CCOC(=O)/C=C/CC(C)(C)COC(C)=O | > 10 | > 10 | > 10 | > 10 | > 10 | > 10 | – | – | – | – | – | – | – | – | – | – | – | – | – | –
CC(=O)OC1C=C(C=O)C(O)(C=O)C2(C)CCCC(C)(C)C12 (centres undefined) | – | 4.92 | 2.15 | 6.31 | 3.42 | – | – | 3.77 | 8.42 | 5.11 | 4.3 | 2.24 | – | 1.58 | 3.36 | 0.525 | 5.44 | – | – | –
CC(C)=CCc1c(O)cc(O)c2c1OC(c1ccc(O)cc1)C(O)C2=O (centres undefined) | – | 45.8 | 36.7 | 67 | 50.7 | – | – | > 100 | – | 32.5 | 70.3 | > 100 | – | 43.4 | > 100 | – | 95.3 | – | – | –
NCC(Cl)C(O)c1cnc(N)[nH]1 (centres undefined) | – | 16 | 16.2 | 52.6 | > 76.6 | – | – | 29.2 | 21.4 | 20.8 | 9.23 | 40.7 | – | 3.45 | 29.8 | 1.06 | > 90.9 | – | – | –
Cc1[nH]c(=O)[nH]c(=O)c1/C=C/C(=O)NC(CO)CC(C)C (centres undefined) | – | > 375 | > 375 | > 375 | > 375 | – | – | > 375 | > 375 | > 237 | > 346 | > 375 | – | > 375 | > 375 | > 375 | > 375 | – | – | –
N=C1C(=N)c2ccccc2-c2ccccc21.[Cl-].[Ru+2].c1cnc2c(c1)ccc1cccnc12.c1cnc2c(c1)ccc1cccnc12 | – | > 100 | 68.6 | > 100 | 60.7 | > 100 | – | – | – | 92.5 | – | – | – | – | > 100 | – | > 100 | 34.5 | 24.6 | 39.2
COc1ccc(C2C(C(=O)O)=C(CO)Oc3cc4c(cc32)OCO4)cc1 (centres undefined) | – | > 100 | > 100 | > 100 | > 100 | – | – | > 100 | > 100 | > 100 | > 100 | > 100 | – | > 100 | > 100 | – | > 100 | – | – | –
